Reference: patent US12344610B2, “APOL1 inhibitors and methods of use” (Maze Therapeutics, Inc., priority 2022, dated 2025)
Where two headings read alike, the source gives them in different places.

Experiments:
Assay type in all cases: cell-based
[1] = test system: HEK293 cells overexpressing APOL1 G2; assay: APOL1 G2 HEK293 cell rescue assay (reversal of cell death caused by overexpression of APOL1); settings: geometric mean of at least 2 assay runs, † = single assay run
In short: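 Each compound tested in duplicate wells on one plate per run, with values usually the geometric mean across at least two runs on different days, occasionally from one run only. Read-out: concentration giving half-maximal rescue of APOL1 G2 overexpression-induced death of HEK293 cells.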

[2] = test system: Trypanosoma brucei Lister 427 VSG221 with APOL1 G2 recombinant protein; assay: APOL1 G2 trypanosome cell rescue assay (Example B5); settings: geometric mean of at least 2 assay runs, † = single assay run
In short: (§1)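 Luminescent ATP read-out (CellTiter-Glo) of trypanosome viability after 20 h at 37° C. Bloodstream T. brucei Lister 427 VSG221, 250/well in modified HMI-9, were exposed to recombinant mature APOL1 (aa 28-398) from a 2 μg/mL addition, plus compound in 11-point 2-fold series.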

[3] = test system: Trypanosoma brucei Lister 427 VSG221 with APOL1 G1 recombinant protein; assay: APOL1 G1 trypanosome cell rescue assay (Example B5); settings: geometric mean of at least 2 assay runs, † = single assay run
In short: as §1

[4] = test system: Trypanosoma brucei Lister 427 VSG221 with APOL1 G0 recombinant protein; assay: APOL1 G0 trypanosome cell rescue assay (Example B5); settings: Trypanosoma brucei, 20 h, read-out: APOL1 G0 Trypanosome Rescue EC50, Trypanosoma brucei Lister 427 VSG221 with APOL1 G0 recombinant protein, 20 hours, CellTiter-Glo; geometric mean of at least 2 assay runs; † = single assay run
In short: as §1

[5] = Homo sapiens, HEK293, HEK293 overexpressing APOL1 G2
[6] = Trypanosoma brucei, 20 h, read-out: APOL1 G2 Trypanosome Rescue EC50, Trypanosoma brucei Lister 427 VSG221 with APOL1 G2 recombinant protein, 20 hours, CellTiter-Glo
[7] = Trypanosoma brucei, 20 h, read-out: APOL1 G1 Trypanosome Rescue EC50, Trypanosoma brucei Lister 427 VSG221 with APOL1 G1 recombinant protein, 20 hours, CellTiter-Glo

| Compound | EC50 [1, 5] | EC50 [2, 6] | EC50 [3, 7] | EC50 [4] | EC50 ([2]; read-out: APOL1 G2 Trypanosome Rescue EC50, Trypanosoma brucei Lister 427 VSG221 with APOL1 G2 recombinant protein, 20 hours, CellTiter-Glo) | EC50 ([3]; read-out: APOL1 G1 Trypanosome Rescue EC50, Trypanosoma brucei Lister 427 VSG221 with APOL1 G1 recombinant protein, 20 hours, CellTiter-Glo) | EC50 ([1]; HEK293 overexpressing APOL1 G2) |
| --- | --- | --- | --- | --- | --- | --- | --- |
| CN1C(=O)C2(CCN(CCOc3ccc(S(=O)(=O)CCCS(C)(=O)=O)cc3)CC2)c2cc(Cl)ccc21 [Compound 23, 5-chloro-1′-{2-[4-(3-methanesulfonylpropanesulfonyl)phenoxy]ethyl}-1-methyl-1,2-dihydrospiro[indole-3,4′-piperidin]-2-one] | 135 nM | 113 nM | 612 nM | 321 nM | – | – | – |
| CC(O)c1ncc(OCCN2CCC3(CC2)C(=O)Nc2ccc(Cl)cc23)cc1C(F)(F)F (single isomer, unassigned) [Compound 291, 5-chloro-1′-[2-({6-[(1R) or (1S)-1-hydroxyethyl]-5-(trifluoromethyl)pyridin-3-yl}oxy)ethyl]-1,2-dihydrospiro[indole-3,4′-piperidin]-2-one] | 26.4 nM | – | – | 63.1 nM | 26.5 nM | 79.7 nM | – |
| C[C@]1(O)C[C@@H](N2C(=O)CCc3cc(OCCN4CCC5(CC4)C(=O)Nc4ccc(C(F)F)cc45)cnc32)C1 [Compound 274, 5-(difluoromethyl)-1′-[2-({7-oxo-8-[(cis)-3-hydroxy-3-methylcyclobutyl]-5,6,7,8-tetrahydro-1,8-naphthyridin-3-yl}oxy)ethyl]-1,2-dihydrospiro[indole-3,4′-piperidin]-2-one] | 34 nM | 17.2 nM | 58.4 nM | 59.3 nM | – | – | – |
| CS(=O)(=O)NC1CN(C(=O)c2ccc(OCCN3CCC4(CC3)C(=O)Nc3ccc(Cl)cc34)cc2F)C1 [Compound 237, N-{1-[4-(2-{5-chloro-2-oxo-1,2-dihydrospiro[indole-3,4′-piperidin]-1′-yl}ethoxy)-2-fluorobenzoyl]azetidin-3-yl} methanesulfonamide] | 238 nM | 57.2 nM | 196 nM | 132 nM | – | – | – |
| C[C@@H](COc1ccc(S(C)(=O)=O)c(C(F)F)c1)N1CCC2(CC1)C(=O)Nc1ccc(Cl)cc12 (single isomer, unassigned) [Compound 210] | 63.3 nM | 21.8 nM | 71.1 nM | 63.8 nM | – | – | – |
| O=C1CCc2cc(OCCN3CCC4(CC3)C(=O)Nc3ccc(Cl)cc34)cnc2N1[C@H]1C[C@@](O)(C2CC2)C1 (single isomer, unassigned) [Compound 297, 5-chloro-1′-[2-({7-oxo-8-[(trans)-3-cyclopropyl-3-hydroxycyclobutyl]-5,6,7,8-tetrahydro-1,8-naphthyridin-3-yl}oxy)ethyl]-1,2-dihydrospiro[indole-3,4′-piperidin]-2-one] | 31.8 nM | 31.5 nM | 85.4 nM | 72.6 nM | – | – | – |
| CC(O)c1ncc(OCCN2CCC3(CC2)C(=O)Nc2ccc(Cl)cc23)cn1 (single isomer, unassigned) [Compound 285, 5-chloro-1′-[2-({2-[(1S) or (1R)-1-hydroxyethyl]pyrimidin-5-yl}oxy)ethyl]-1,2-dihydrospiro[indole-3,4′-piperidin]-2-one] | 200 nM | 212 nM | 749 nM | 547 nM | – | – | – |
| CN(C)C(=O)C1(c2ccc(OCCN3CCC4(CC3)C(=O)Nc3ccc(C#N)cc34)cc2)COC1 [Compound 254, 3-[4-(2-{5-cyano-2-oxo-1,2-dihydrospiro[indole-3,4′-piperidin]-1′-yl}ethoxy)phenyl]-N,N-dimethyloxetane-3-carboxamide] | 175 nM | 252 nM | 951 nM | 695 nM | – | – | – |
| O=C1Nc2ccc(Cl)cc2C12CCN(CCOc1cnc3c(N4CC(O)C4)nccc3c1)CC2 [Compound 314, 5-chloro-1′-(2-{[8-(3-hydroxyazetidin-1-yl)-1,7-naphthyridin-3-yl]oxy}ethyl)-1,2-dihydrospiro[indole-3,4′-piperidin]-2-one] | 24.3 nM | 11.5 nM | 34.9 nM | 25.4 nM | – | – | – |
| O=C1CCc2cc(OCCN3CCC4(CC3)C(=O)Nc3ccc(Cl)cc34)cnc2N1CCO [Compound 192, 5-chloro-1′-(2-{[8-(2-hydroxyethyl)-7-oxo-5,6,7,8-tetrahydro-1,8-naphthyridin-3-yl]oxy}ethyl)-1,2-dihydrospiro[indole-3,4′-piperidin]-2-one] | 41.1 nM | 49.1 nM | 142 nM | 108 nM | – | – | – |
| CS(=O)(=O)Nc1ccc(OCCN2CCC3(CC2)C(=O)Nc2ccc(Cl)cc23)cc1 [Compound 214, N-[4-(2-{5-chloro-2-oxo-1,2-dihydrospiro[indole-3,4′-piperidin]-1′-yl}ethoxy)phenyl]methanesulfonamide] | 79 nM | 88.7 nM | 430 nM | 250 nM | – | – | – |
| CC(COc1ccc2c(c1)CCC(=O)N2C)N1CCC2(CC1)C(=O)Nc1ccc(Cl)cc12 (single isomer, unassigned) [Compound 200] | – | 72.4 nM | 192 nM | 185 nM | – | – | 87.2 nM |
| O=C(c1ccc(OCCN2CCC3(CC2)C(=O)Nc2ccc(Cl)cc23)cc1C(F)(F)F)N1CCS(=O)(=O)CC1 [Compound 272, 4-[4-(2-{5-chloro-2-oxo-1,2-dihydrospiro[indole-3,4′-piperidin]-1′-yl}ethoxy)-2-(trifluoromethyl)benzoyl]-1λ^6-thiomorpholine-1,1-dione] | 93.4 nM | 18.9 nM | 73.2 nM | 58.9 nM | – | – | – |
| CNC(=O)C1(S(=O)(=O)c2ccc(OCCN3CCC4(CC3)C(=O)Nc3ccc(Cl)cc34)cc2)CC1 [Compound 226, 1-[4-(2-{5-chloro-2-oxo-1,2-dihydrospiro[indole-3,4′-piperidin]-1′-yl}ethoxy)benzenesulfonyl]-N-methylcyclopropane-1-carboxamide] | 43 nM | 36 nM | 112 nM | 80 nM | – | – | – |
| CC(COc1ccc2c(c1)CCC(=O)N2C)N1CCC2(CC1)C(=O)Nc1ccc(C#N)cc12 (single isomer, unassigned) [Compound 203, (S) or (R)-1′-{1-[(1-methyl-2-oxo-1,2,3,4-tetrahydroquinolin-6-yl)oxy]propan-2-yl}-2-oxo-1,2-dihydrospiro[indole-3,4′-piperidine]-5-carbonitrile] | – | 227 nM | 583 nM | 565 nM | – | – | 187 nM |
| C[C@@H](COc1ccc(S(C)(=O)=O)c(C(F)F)c1)N1CCC2(CC1)C(=O)Nc1ccc(C#N)cc12 (single isomer, unassigned) [Compound 212] | 81.4 nM | 32.1 nM | 103 nM | 69.6 nM | – | – | – |
| O=C(c1ccc(OCCN2CCC3(CC2)C(=O)Nc2ccc(Cl)cc23)cc1F)N1CC(O)C1 [Compound 235, 5-chloro-1′-{2-[3-fluoro-4-(3-hydroxyazetidine-1-carbonyl)phenoxy]ethyl}-1,2-dihydrospiro[indole-3,4′-piperidin]-2-one] | 59.8 nM | 132 nM | 452 nM | 270 nM | – | – | – |
| CS(=O)(=O)c1ccc(OCCN2CCC3(CC2)C(=O)N(CCO)c2ccc(Cl)cc23)cc1 [Compound 18, 5-chloro-1-(2-hydroxyethyl)-1′-[2-(4-methanesulfonylphenoxy)ethyl]-1,2-dihydrospiro[indole-3,4′-piperidin]-2-one] | 225 nM | 234 nM | 1540 nM | 690 nM | – | – | – |
| CC(C)(O)c1ncc(OCCN2CCC3(CC2)C(=O)Nc2ccc(Cl)cc23)cn1 [Compound 305, 5-chloro-1′-(2-{[2-(2-hydroxypropan-2-yl)pyrimidin-5-yl]oxy}ethyl)-1,2-dihydrospiro[indole-3,4′-piperidin]-2-one] | 85.4 nM | 80.4 nM | 265 nM | 187 nM | – | – | – |
| CN1C(=O)C2(CCN(CCOc3cc(F)c(C(=O)N4CCS(=O)(=O)CC4)c(F)c3)CC2)c2cc(C#N)ccc21 [Compound 260, 1′-{2-[4-(1,1-dioxo-1λ^6-thiomorpholine-4-carbonyl)-3,5-difluorophenoxy]ethyl}-1-methyl-2-oxo-1,2-dihydrospiro[indole-3,4′-piperidine]-5-carbonitrile] | 119 nM | 110 nM | 397 nM | 274 nM | – | – | – |
| CS(=O)(=O)C1CN(c2ncc(OCCN3CCC4(CC3)C(=O)Nc3ccc(Cl)cc34)cn2)C1 [Compound 302, 5-chloro-1′-(2-{[2-(3-methanesulfonylazetidin-1-yl)pyrimidin-5-yl]oxy}ethyl)-1,2-dihydrospiro[indole-3,4′-piperidin]-2-one] | 98.1 nM | 142 nM | 498 nM | 356 nM | – | – | – |
